We go through 20 molecules from paper PMC2673050 (Journal of medicinal chemistry, 2009).

Series [1] is described as follows: Cytotoxicity testing. Type of series: cell-based. The conditions noted are these: human, MCF7 breast cells.
The nature of series [2]: Cytotoxicity testing. Particulars: human, LU lung cancer cells. Type of series: cell-based.
In another series the target is T1, aromatase (CYP19A1) (Homo sapiens, UniProt P11511).
T1 sequence (P11511 1-503): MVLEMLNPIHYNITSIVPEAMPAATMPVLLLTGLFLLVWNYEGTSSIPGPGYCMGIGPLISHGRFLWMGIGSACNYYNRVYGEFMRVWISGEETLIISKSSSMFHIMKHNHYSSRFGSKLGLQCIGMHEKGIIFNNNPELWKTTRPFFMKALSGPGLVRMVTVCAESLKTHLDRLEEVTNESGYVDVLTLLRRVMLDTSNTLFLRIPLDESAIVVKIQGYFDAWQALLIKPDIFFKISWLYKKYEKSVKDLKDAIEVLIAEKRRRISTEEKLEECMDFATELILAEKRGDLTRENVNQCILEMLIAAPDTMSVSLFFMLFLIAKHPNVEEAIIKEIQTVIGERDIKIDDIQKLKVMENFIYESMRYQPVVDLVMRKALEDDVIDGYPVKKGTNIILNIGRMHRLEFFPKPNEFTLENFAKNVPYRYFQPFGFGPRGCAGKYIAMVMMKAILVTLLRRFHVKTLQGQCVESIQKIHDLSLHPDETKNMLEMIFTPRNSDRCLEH
The experiment in a line: Aromatase inhibition assay. Type of series: biochemical.

For series [3], the system named is four different cell lines. As to the kind of experiment: Cytotoxicity, overall statement for four cell lines. Type of series: cell-based.
A further series deals with T2, Human QR2 (Homo sapiens, UniProt P16083).
T2 sequence (P16083 1-231): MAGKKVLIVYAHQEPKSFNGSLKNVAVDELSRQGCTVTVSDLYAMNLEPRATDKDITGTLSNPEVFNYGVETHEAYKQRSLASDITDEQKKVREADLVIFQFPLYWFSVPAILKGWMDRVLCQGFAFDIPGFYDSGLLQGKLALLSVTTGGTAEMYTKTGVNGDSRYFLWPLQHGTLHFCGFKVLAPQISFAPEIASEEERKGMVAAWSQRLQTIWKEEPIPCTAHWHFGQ
As to the kind of experiment: QR2 inhibition assay. Type of series: biochemical. Particulars: for Increase in QR2 inhibitory potency relative to compound 1: relative to natural product 1.

For series [4], the system named is Salmonella typhimurium strain TM677. Particulars: S. typhimurium TM677; cited from earlier work.
The test system of series [5] is mouse mammary gland organ culture (MMOC). The conditions noted are these: cited from earlier work.

Broadly, the IC50 is the concentration that gives 50% inhibition. The low end stands for higher potency, the high end for lower potency.

On to `COc1cc(OC)c2[nH]c(=O)cc(C)c2c1` [1i, 6,8-Dimethoxy-4-methylquinolin-2(1H)-one], for which the half-maximal inhibitory concentration (IC50) at 72 h in the series “Cytotoxicity testing [1]” and in the series “Cytotoxicity testing [2]” was more than 91.3 µM throughout. Besides, at aromatase (CYP19A1), the “Aromatase inhibitory activity (in words)” value was “inactive”.
`COc1cc(OC)c2[nH]c(=O)cc(C)c2c1OC` [1o, 5,6,8-Trimethoxy-4-methylquinolin-2(1H)-one]: in series [3], the “Cytotoxicity (in words)” value is listed as “low degree of cytotoxicity”.
On to `Cc1cc(=O)n(C)c2c3c(ccc12)OCO3` [1b, 6,9-Dimethyl-[1,3]dioxolo[4,5-h]quinolin-8(9H)-one], for which the IC50 at 72 h in the series “Cytotoxicity testing [1]” and in the series “Cytotoxicity testing [2]” was more than 92.1 µM throughout. Further, the “Increase in QR2 inhibitory potency relative to compound 1” value on Human QR2 is listed as “more than 8 fold”.
With `COc1ccc2c(C)cc(=O)n(C)c2c1OC` [1h, 7,8-Dimethoxy-1,4-dimethylquinolin-2(1H)-one], the IC50 at 72 h in the series “Cytotoxicity testing [1]” and in “Cytotoxicity testing [2]” was more than 85.8 µM throughout.
As to `COc1cc(OC)c2c(c(C)cc(=O)n2C)c1OC` [1p, 5,6,8-Trimethoxy-1,4-dimethylquinolin-2(1H)-one], the IC50 at 72 h in “Cytotoxicity testing [1]” was more than 76 µM. The “Cytotoxicity (in words)” value in series [3] is “low degree of cytotoxicity”.
On to `COc1cccc2c(C)cc(=O)n(C)c12` [1f, 8-Methoxy-1,4-dimethylquinolin-2(1H)-one], for which the IC50 at 72 h in the series “Cytotoxicity testing [1]” and in the series “Cytotoxicity testing [2]” was more than 98.5 µM in each case. For the same molecule, the “Increase in QR2 inhibitory potency relative to compound 1” value on Human QR2 is on record as “approximately 10 fold”.
`COc1cc2c(C)cc(=O)[nH]c2c(OC)c1OC` [1m, 6,7,8-Trimethoxy-4-methylquinolin-2(1H)-one]: the IC50 at 72 h in “Cytotoxicity testing [1]” and in “Cytotoxicity testing [2]” was more than 80.3 µM each time.
With `Cc1cc(=O)[nH]c2ccccc12` [1c, 4-Methylquinolin-2(1H)-one], the IC50 at 72 h in the series “Cytotoxicity testing [1]” and in the series “Cytotoxicity testing [2]” was more than 126 µM throughout. In addition, on Human QR2, the “QR2 inhibitory activity (in words)” value is “inactive”. In addition, the “Aromatase inhibitory activity (in words)” value at aromatase (CYP19A1) is “inactive”.
Turning to `COc1cccc2c(C)cc(=O)[nH]c12` [1e, 8-Methoxy-4-methylquinolin-2(1H)-one], the IC50 at 72 h in the series “Cytotoxicity testing [1]” and in “Cytotoxicity testing [2]” was more than 106 µM in each case. On aromatase (CYP19A1), the “Aromatase inhibitory activity (in words)” value is reported as “not active”.
`COc1cc2c(C)cc(=O)n(C)c2c(OC)c1OC` [1n, 6,7,8-Trimethoxy-1,4-dimethylquinolin-2(1H)-one]: the IC50 at 72 h in the series “Cytotoxicity testing [1]” and in the series “Cytotoxicity testing [2]” was more than 76 µM each time.
For `COc1c(OC)c(OC)c2c(c(C)cc(=O)n2C)c1OC` [1r, 5,6,7,8-Tetramethoxy-1,4-dimethylquinolin-2(1H)-one], the IC50 at 72 h in the series “Cytotoxicity testing [1]” and in the series “Cytotoxicity testing [2]” was more than 68.2 µM throughout. Also, at Human QR2, the “QR2 inhibitory activity (in words)” value was “completely inactive”. The “Aromatase inhibitory activity (in words)” value on aromatase (CYP19A1) is “submicromolar range”.
`Cc1cc(=O)n(C)c2c1C(=O)C=CC2=O` [compound 12]: the “Cytotoxicity (in words)” value in series [3] was “low degree of cytotoxicity”.
Regarding `Cc1cc(=O)[nH]c2c3c(ccc12)OCO3` [1a, 6-Methyl-[1,3]dioxolo[4,5-h]quinolin-8(9H)-one], the IC50 at 72 h in “Cytotoxicity testing [1]” and in “Cytotoxicity testing [2]” was more than 98.5 µM in each case.
On to `COc1cc(OC)c2c(c1)c(C)cc(=O)n2C` [1j, 6,8-Dimethoxy-1,4-dimethylquinolin-2(1H)-one], for which the concentration for half-maximal inhibition (IC50) at 72 h in the series “Cytotoxicity testing [1]” and in the series “Cytotoxicity testing [2]” was more than 85.8 µM throughout. In addition, the “Aromatase inhibitory activity (in words)” value on aromatase (CYP19A1) was “submicromolar range”.
Turning to `COc1ccc(OC)c2c(C)cc(=O)[nH]c12` [1k, 5,8-Dimethoxy-4-methylquinolin-2(1H)-one], the IC50 at 72 h in “Cytotoxicity testing [1]” and in the series “Cytotoxicity testing [2]” was more than 91.2 µM in each case.
Regarding `COc1ccc2c(C)cc(=O)[nH]c2c1OC` [1g, 7,8-Dimethoxy-4-methylquinolin-2(1H)-one], the half-inhibitory concentration (IC50) at 72 h in “Cytotoxicity testing [1]” and in the series “Cytotoxicity testing [2]” was more than 91.3 µM in each case.
Turning to `COc1c(OC)c(OC)c2c(C)cc(=O)[nH]c2c1OC` [1q, 5,6,7,8-Tetramethoxy-4-methylquinolin-2(1H)-one], the IC50 at 72 h in “Cytotoxicity testing [1]” and in “Cytotoxicity testing [2]” was more than 71.7 µM each time. For the same molecule, the “QR2 inhibitory activity (in words)” value on Human QR2 is “completely inactive”.
In the case of `COc1cc(=O)n(C)c2c3c(ccc12)OCO3` [compound 1, 6-Methoxy-9-methyl-[1,3]dioxolo[4,5-h]quinolin-8(9H)-one], the concentration for half-maximal inhibition (IC50) at 72 h in “Cytotoxicity testing [1]” and in the series “Cytotoxicity testing [2]” was more than 85.8 µM each time. In addition, the “Inhibition of mutagenicity induced by 7,12-dimethylbenz[a]anthracene (DMBA)” value in series [4] is “inhibit mutagenicity”. The “Inhibition of formation of DMBA-induced preneoplastic lesions” value in series [5] is reported as “inhibition of the formation of DMBA-induced preneoplastic lesions”.
On to `Cc1cc(=O)n(C)c2ccccc12` [1d, 1,4-Dimethylquinolin-2(1H)-one], for which the IC50 at 72 h in “Cytotoxicity testing [1]” and in the series “Cytotoxicity testing [2]” was more than 116 µM in each case. In addition, the “Increase in QR2 inhibitory potency relative to compound 1” value at Human QR2 is recorded as “approximately 3 fold”. Also, at aromatase (CYP19A1), the “Aromatase inhibitory activity (in words)” value is “inactive”.
With `COc1ccc(OC)c2c1c(C)cc(=O)n2C` [1l, 5,8-Dimethoxy-1,4-dimethylquinolin-2(1H)-one], the half-inhibitory concentration (IC50) at 72 h in the series “Cytotoxicity testing [1]” and in the series “Cytotoxicity testing [2]” was more than 85.7 µM throughout. Further, on Human QR2, the “Increase in QR2 inhibitory potency relative to compound 1” value is 10 fold. The “Aromatase inhibitory activity (in words)” value on aromatase (CYP19A1) is reported as “submicromolar range”.
